Experiment [1] in a line: In vitro anti-inflammatory activity at 100 mg/ml incubated for 15 mins followed by heating for 10 mins and cooling by albumin denaturation assay relative to control.
The subject of experiment [2] is Mus musculus. Description: Anti-inflammatory activity in formalin-induced Swiss albino mouse assessed as reduction in paw edema volume at 10 mg/kg, ip pretreated for 30 mins followed by formalin addition relative to control. The experiment is classed as functional. The arrangement: scale not given: the % may be the effect or the level left.
Experiment [3] in a line: Selectivity ratio of IC50 for ovine COX1 to IC50 for recombinant human COX2.
The target in experiment [4] is T1, Prostaglandin G/H synthase 2 (Homo sapiens, UniProt P35354).
T1 sequence (P35354 whole entry): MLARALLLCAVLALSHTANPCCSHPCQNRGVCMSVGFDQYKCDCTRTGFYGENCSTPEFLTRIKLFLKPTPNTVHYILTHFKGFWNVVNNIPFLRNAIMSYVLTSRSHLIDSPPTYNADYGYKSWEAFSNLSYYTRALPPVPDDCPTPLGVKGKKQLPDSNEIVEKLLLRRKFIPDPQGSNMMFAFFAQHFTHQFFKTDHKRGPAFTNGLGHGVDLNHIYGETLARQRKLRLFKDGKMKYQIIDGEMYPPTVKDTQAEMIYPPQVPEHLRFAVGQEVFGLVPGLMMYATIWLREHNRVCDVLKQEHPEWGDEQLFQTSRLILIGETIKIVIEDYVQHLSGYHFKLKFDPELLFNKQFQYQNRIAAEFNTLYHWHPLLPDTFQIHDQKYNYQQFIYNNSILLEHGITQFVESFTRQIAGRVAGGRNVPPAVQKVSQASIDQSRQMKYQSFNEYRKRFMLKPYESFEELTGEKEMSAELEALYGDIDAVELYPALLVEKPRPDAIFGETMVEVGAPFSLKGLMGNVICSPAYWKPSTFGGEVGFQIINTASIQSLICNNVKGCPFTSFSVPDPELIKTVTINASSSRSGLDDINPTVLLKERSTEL
Description: Inhibition of recombinant human COX2 assessed as decrease in PGE2 release after 10 mins by ELISA.

Experiment [5] relates to Rattus norvegicus. Description: Anti-inflammatory activity in carrageenan-induced Swiss albino rat assessed as reduction in paw edema by measuring swelling thickness at 10 ml/kg, po pretreated for 1 hr followed by carrageenan addition and measured up to 6 hrs at 1 hr interval relative to control. Type of experiment: functional. On the set-up: scale not given: the % may be the effect or the level left.

Experiment [6] concerns Rattus norvegicus. Description: Anti-inflammatory activity in carrageenan-induced albino rat assessed as reduction in paw edema volume at 20 umol/kg, po measured at 1 hr intervals up to 4 hrs relative to control. The experiment is classed as functional. The arrangement: scale not given: the % may be the effect or the level left.
Experiment [7] deals with T1, Prostaglandin G/H synthase 2. Description: Inhibition of COX2 (unknown origin) using arachidonic acid as substrate preincubated for 20 mins followed by substrate addition measured at 1 sec interval up to 60 secs by chemiluminescence assay.
Experiment [8] concerns the target T2, Prostaglandin G/H synthase 2 (Homo sapiens) (UniProt P35354).
T2 sequence (whole entry): T1 sequence (P35354 whole entry)
The conditions noted are these: Blood, at 10 µM.
Description: Inhibition of COX2 in LPS-induced human whole blood at 10 uM after 24 hrs by EIA relative to control

The structures appear in SMILES notation.

In experiment [1], `O=c1nc(-c2ccccc2)c(-c2ccccc2)nn1Cc1nnc(Nc2ccc(Cl)cc2)s1` returned an Activity of 71.9 to 79.2%.
Turning to `Cc1ccc(Nc2nnc(Cn3nc(-c4ccccc4)c(-c4ccccc4)nc3=O)s2)cc1`, in experiment [1], the Activity fell in the range of 71.9 to 79.2%.
`Cc1sc2nnn(-c3ccccc3)c(=O)c2c1C`: the Activity in experiment [2] was 70.82%.
Turning to `O=c1nc(-c2ccccc2)c(-c2ccccc2)nn1Cc1nnc(S)n1-c1ccc(Cl)cc1`, the Activity in experiment [1] was in the range of 71.9 to 79.2%.
In the case of `CCOC(=O)CSc1nnc(-c2ccc(S(C)(=O)=O)cc2)c(-c2ccc(OC)cc2)n1`, in experiment [3], the Ratio IC50 was determined as 8.79. The IC50 in experiment [4] was 10.1 µM.
`Cc1ccc(-n2c(S)nnc2Cn2nc(-c3ccccc3)c(-c3ccccc3)nc2=O)cc1`: the Activity in experiment [1] was 71.9 to 79.2%.
Turning to `O=c1nc(-c2ccccc2)c(-c2ccccc2)nn1Cc1nnc(Nc2ccc([N+](=O)[O-])cc2)o1`, the Activity is 57.9 - 61.56% in experiment [5] and 71.9 to 79.2% in experiment [1].
Take `Cc1sc2nnn(-c3ccc(F)c(Cl)c3)c(=O)c2c1C`: the Activity in experiment [2] turned out to be 36.35%.
For `CCOC(=O)CSc1nnc(-c2ccc(S(C)(=O)=O)cc2)c(-c2ccccc2)n1`, the Ratio IC50 in experiment [3] was found to be 8.79. The IC50 in experiment [4] is 10.1 µM.
In the case of `COc1ccc2c(c1)c(CC(=O)O)c(C)n2C(=O)c1ccc(Cl)cc1` [INDOMETHACIN], the Activity was 80.96% in experiment [6], 63.56% in experiment [5] and 82.7% in experiment [1].
Turning to `Cc1ccc(-c2cc(C(F)(F)F)nn2-c2ccc(S(N)(=O)=O)cc2)cc1` [CELECOXIB], the values for the Activity in experiment [5] and in experiment [1] were 62.26% and 80.3%, respectively.
The matching figures for `Cc1ccc(Nc2nnc(Cn3nc(-c4ccccc4)c(-c4ccccc4)nc3=O)o2)cc1`: 57.9 - 61.56% and 71.9 to 79.2%.
For `O=C([O-])Cc1ccccc1Nc1c(Cl)cccc1Cl.[Na+]` [DICLOFENAC SODIUM], the Activity in experiment [2] is reported as 78.82%.
Turning to `COc1ccc(Nc2nnc(Cn3nc(-c4ccccc4)c(-c4ccccc4)nc3=O)o2)cc1`, the Activity in experiment [5] is 57.9 - 61.56%; in experiment [1] it was 71.9 to 79.2%.
`O=c1nc(-c2ccccc2)c(-c2ccccc2)nn1Cc1nnc(S)n1-c1ccccc1` had an Activity in experiment [1] of 71.9 to 79.2%.
The same measure, in the same setting: the result for `COc1ccc(-n2c(S)nnc2Cn2nc(-c3ccccc3)c(-c3ccccc3)nc2=O)cc1` reads 71.9 to 79.2%.
The molecule `CCOC(=O)c1cnn(-c2ccccn2)c1-n1nnc2ccccc2c1=O` came in with an IC50 in experiment [7] of 20 µM.
As for `O=c1nc(-c2ccccc2)c(-c2ccccc2)nn1Cc1nnc(Nc2ccc(Cl)cc2)o1`, the figures for the Activity in experiment [5] and in experiment [1] were 57.9 - 61.56% and 71.9 to 79.2%, respectively.
In the case of `Cc1sc2nnn(-c3ccc(F)cc3)c(=O)c2c1C`, in experiment [2], the Activity amounted to 34.12%.
`Cc1ccc(Nc2nc(-c3ccccc3)c3c(n2)sc2c(Cl)nnnc23)cc1`: the Activity in experiment [6] is on record as 82.85%.
Turning to `COc1ccc(-c2nnc(N/N=C/c3ccc4c(c3)OCO4)nc2-c2ccc(OC)cc2)cc1`, the inhibition in experiment [8] turned out to be 78%.
Regarding `O=c1nc(-c2ccccc2)c(-c2ccccc2)nn1Cc1nnc(Nc2ccccc2)o1`, the Activity was 57.9 - 61.56% in experiment [5] and 71.9 to 79.2% in experiment [1].
Regarding `O=c1nc(-c2ccccc2)c(-c2ccccc2)nn1Cc1nnc(S)n1-c1ccc([N+](=O)[O-])cc1`, in experiment [1], the Activity fell in the range of 71.9 to 79.2%.
`CCOC(=O)CSc1nnc(-c2ccc(S(C)(=O)=O)cc2)c(-c2ccc(Cl)cc2)n1`: the Ratio IC50 in experiment [3] was 8.79. Also, the IC50 in experiment [4] turned out to be 10.1 µM.
Take `CCOC(=O)CSc1nnc(-c2ccc(S(C)(=O)=O)cc2)c(-c2ccc(F)cc2)n1`: the Ratio IC50 in experiment [3] turned out to be 8.79. Besides, the IC50 in experiment [4] stood at 10.1 µM.
On the same counts, the results for `CCOC(=O)CSc1nnc(-c2ccc(S(C)(=O)=O)cc2)c(-c2ccc(C)cc2)n1` are 8.79 and 10.1 µM.
With `O=c1nc(-c2ccccc2)c(-c2ccccc2)nn1Cc1nnc(Nc2ccccc2)s1`, the Activity in experiment [1] was 71.9 to 79.2%.
Turning to `Cc1sc2nnn(-c3ccccc3Cl)c(=O)c2c1C`, the Activity in experiment [2] is listed as 36.47%.
`O=c1nc(-c2ccccc2)c(-c2ccccc2)nn1Cc1nnc(Nc2ccc([N+](=O)[O-])cc2)s1` had an Activity in experiment [1] of 71.9 to 79.2%.
In experiment [8], `COc1ccc(-c2nnc(N/N=C/c3cccc(OC)c3OC)nc2-c2ccc(OC)cc2)cc1` came in with an inhibition of 78%.
As for `Cc1ccc(Nc2nc(-c3ccccc3)c3c(n2)sc2c(Nc4ccc(S(=O)(=O)NC(=N)N)cc4)nnnc23)cc1`, the Activity in experiment [6] is recorded as 78.57%.
The molecule `COc1ccc(Nc2nnc(Cn3nc(-c4ccccc4)c(-c4ccccc4)nc3=O)s2)cc1` displayed an Activity in experiment [1] of 71.9 to 79.2%.

The values are drawn from ChEMBL document CHEMBL4325906, “Anti-inflammatory activity of triazine derivatives: A systematic review” (Eur J Med Chem, 2019).
